Patent publication US8058475B2, “Substituted cyclohexylmethyl compounds” (Gruenenthal GmbH, priority 2005, dated 2011)
Where two headings read alike, the source gives them in different places.

Biological target: human μ-opiate receptor (Homo sapiens, UniProt P35372)
Test: Affinity for the human μ-opiate receptor ([3H]-naloxone displacement, SPA, CHO-K1 membrane preparation)
Format: binding
Details: for inhibition at 1 µM: read-out: μ-Opioid receptor, % inhibition [1 μM]; for Ki: read-out: μ-Opioid receptor, Ki
[1] = 1 μM test substance, inhibition of specific [3H]-naloxone binding

human μ-opiate receptor, sequence (P35372 whole entry): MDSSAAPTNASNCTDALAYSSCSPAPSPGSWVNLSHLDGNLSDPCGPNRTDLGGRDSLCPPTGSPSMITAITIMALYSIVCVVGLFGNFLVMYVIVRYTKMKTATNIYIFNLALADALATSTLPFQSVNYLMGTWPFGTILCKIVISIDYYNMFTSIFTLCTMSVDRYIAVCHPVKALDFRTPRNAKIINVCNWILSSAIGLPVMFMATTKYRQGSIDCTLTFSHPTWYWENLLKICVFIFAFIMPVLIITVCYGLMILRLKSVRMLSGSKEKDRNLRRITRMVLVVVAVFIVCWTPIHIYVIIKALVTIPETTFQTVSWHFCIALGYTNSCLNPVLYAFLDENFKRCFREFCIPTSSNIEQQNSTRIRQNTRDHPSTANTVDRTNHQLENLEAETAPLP

Row | Compound | inhibition at 1 µM [%] | Ki [nM] | also measured
1 | CCCCCC1(O)CCC(C(c2ccc(Cl)cc2)N(C)C)CC1 (centres unmarked) [compound 170, 4-[(4-chloro-phenyl)-dimethylamino-methyl]-1-pentyl-cyclohexanol] |  |  | μ-Opioid receptor, % inhibition [1 μM] (1 μM test substance, inhibition of specific [3H]-naloxone binding, 1 µM): 63%
2 | CSc1ncccc1C(=O)NC1CCC(C(c2cccs2)N(C)C)CC1 (centres unmarked) [compound 208, N-[4-(dimethylamino-thiophen-2-yl-methyl)-cyclohexyl]-2-methylsulfanyl-nicotinamide] | 92 | 130 | 
3 | CN(C)C(c1ccccc1)C1CCC(CCNC(=O)c2c(F)cccc2F)CC1 (centres unmarked) [compound 461, N-{2-[4-(dimethylamino-phenyl-methyl)-cyclohexyl]-ethyl}-2,6-difluoro-benzamide] | 100 | 17 | 
4 | CCn1nc(C)c(Br)c1C(=O)NC1CCC(C(c2cccs2)N(C)C)CC1 (centres unmarked) [compound 260, 4-bromo-2-ethyl-5-methyl-2H-pyrazole-3-carboxylic acid [4-(dimethylamino-thiophen-2-yl-methyl)-cyclohexyl]-amide] | 78 |  | 
5 | CN(C)C(c1ccccc1)C1CCC(CCNC(=O)c2c(Cl)cccc2Cl)CC1 (centres unmarked) [compound 413, 2,6-dichloro-N-{2-[4-(dimethylamino-phenyl-methyl)-cyclohexyl]-ethyl}-benzamide] | 81 | 31 | 
6 | COc1c(C(=O)NCCC2CCC(C(c3ccccc3)N(C)C)CC2)csc1Cl (centres unmarked) [compound 474, 5-chloro-4-methoxy-thiophene-3-carboxylic acid {2-[4-(dimethylamino-phenyl-methyl)-cyclohexyl]-ethyl}-amide] | 100 | 2.7 | 
7 | CC(Oc1ccccc1)C(=O)NCC1CCC(C(c2ccc(Cl)cc2)N(C)C)CC1 (centres unmarked) [compound 391, N-{4-[(4-chloro-phenyl)-dimethylamino-methyl]-cyclohexylmethyl}-2-phenoxy-propionamide] | 81 | 26 | 
8 | CN(C)C(c1ccccc1)C1CCC(CNC(=O)c2cc(Cl)cc(Cl)c2)CC1 (centres unmarked) [compound 329, 3,5-dichloro-N-[4-(dimethylamino-phenyl-methyl)-cyclohexylmethyl]-benzamide] | 94 | 35 | 
9 | CN(C)C(c1ccc(F)cc1)C1CCC(CCNC(=O)c2ccccc2F)CC1 (centres unmarked) [compound 427, N-(2-{4-[dimethylamino-(4-fluoro-phenyl)-methyl]-cyclohexyl}-ethyl)-2-fluoro-benzamide] | 84 | 40 | 
10 | CC(=O)N(CCc1c[nH]c2ccccc12)C1CCC(C(c2ccccc2)N(C)C)CC1 (centres unmarked) [compound 182, N-(2-(1H-indol-3-yl)ethyl)-N-(4-((dimethylamino)(phenyl)methyl)cyclohexyl)-acetamide] | 95 | 2.1 | 
11 | CN(C)C(c1ccc(F)cc1)C1CCC(NC(=O)c2ccc(F)cc2)CC1 (centres unmarked) [compound 262, N-{4-[dimethylamino-(4-fluoro-phenyl)-methyl]-cyclohexyl}-4-fluoro-benzamide] | 78 | 96 | 
12 | Cc1oc(-c2ccccc2)cc1C(=O)NC1CCC(C(c2cccc(F)c2)N(C)C)CC1 (centres unmarked) [compound 266, 2-methyl-5-phenyl-furan-3-carboxylic acid {4-[dimethylamino-(3-fluoro-phenyl)-methyl]-cyclohexyl}-amide] | 78 | 36 | 
13 | CN(C)C(c1ccccc1)C1CCC(CNC(=O)c2ccc(Cl)cc2Cl)CC1 (centres unmarked) [compound 361, 2,4-dichloro-N-[4-(dimethylamino-phenyl-methyl)-cyclohexylmethyl]-benzamide] | 85 | 42 | 
14 | CN(C)C(c1ccc(F)cc1)C1CCC(CCNC(=O)c2cccc(Cl)c2)CC1 (single isomer, unassigned) [compound 423, 3-chloro-N-(2-{4-[dimethylamino-(4-fluoro-phenyl)-methyl]-cyclohexyl}-ethyl)-benzamide] |  | 15 | μ-Opioid receptor, % inhibition [1 μM]: 83%
15 | COc1cccc(C2(O)CCC(C(c3ccc(Cl)cc3)N(C)C)CC2)c1 (centres unmarked) [compound 164, 4-[(4-chloro-phenyl)-dimethylamino-methyl]-1-(3-methoxy-phenyl)-cyclohexanol] |  |  | inhibition at 1 µM [1]: 58%
16 | CN(C)C(c1ccccc1)C1CCC(CNC(=O)Cc2ccccc2)CC1 (centres unmarked) [compound 306, N-[4-(dimethylamino-phenyl-methyl)-cyclohexylmethyl]-2-phenyl-acetamide] | 98 | 9.9 | 
17 | CCC(C(=O)NC1CCC(C(c2ccccc2)N(C)C)CC1)c1ccccc1 (single isomer, unassigned) [compound 250, N-[4-(dimethylamino-phenyl-methyl)-cyclohexyl]-2-phenyl-butyramide] |  | 36 | μ-Opioid receptor, % inhibition [1 μM] (1 µM): 81%
18 | CN(C)C(c1ccccc1)C1CCC(CNC(=O)c2csc(-c3ccccc3)n2)CC1 (centres unmarked) [compound 335, 2-phenyl-thiazole-4-carboxylic acid [4-(dimethylamino-phenyl-methyl)-cyclohexylmethyl]-amide] | 92 | 33 | 

Row | Compound | inhibition at 1 µM [%] | Ki [nM] | also measured
19 | CN(C)C(c1ccccc1)C1CCC(NC(=O)C2CCCC2)CC1 (centres unmarked) [compound 288, cyclopentanecarboxylic acid [4-(dimethylamino-phenyl-methyl)-cyclohexyl]-amide] | 70 | 160 | 
20 | CN(C)C(c1cccs1)C1CCC(NC(=O)c2cccs2)CC1 (centres unmarked) [compound 193, thiophene-2-carboxylic acid [4-(dimethylamino-thiophen-2-yl-methyl)-cyclohexyl]-amide] | 96 | 23 | 
21 | CN(C)C(c1cccc(F)c1)C1CCC(NC(=O)c2ccc(Cl)c(Cl)c2)CC1 (centres unmarked) [compound 209, 3,4-dichloro-N-{4-[dimethylamino-(3-fluoro-phenyl)-methyl]-cyclohexyl}-benzamide] | 92 | 47 | 
22 | Cc1cc(C(=O)NC2CCC(C(c3cccs3)N(C)C)CC2)no1 (centres unmarked) [compound 224, 5-Methyl-isoxazole-3-carboxylic acid [4-(dimethylamino-thiophen-2-yl-methyl)-cyclohexyl]-amide] | 87 |  | 
23 | Cc1c(S(=O)(=O)c2ccc(Cl)cc2)csc1C(=O)NC1CCC(C(c2ccccc2)N(C)C)CC1 (centres unmarked) [compound 253, 4-(4-chloro-benzenesulfonyl)-3-methyl-thiophene-2-carboxylic acid [4-(dimethylamino-phenyl-methyl)-cyclohexyl]-amide] |  | 79 | μ-Opioid receptor, % inhibition [1 μM] (1 µM): 80%
24 | CN(C)C(CCc1ccccc1)C1CCC(CNC(=O)c2csc3ccccc23)CC1 (centres unmarked) [compound 380, benzo[b]thiophene-3-carboxylic acid [4-(1-dimethylamino-3-phenyl-propyl)-cyclohexylmethyl]-amide] | 83 | 95 | 
25 | CN(C)C(c1ccccc1)C1CCC(NC(=O)COc2ccc(Cl)cc2)CC1 (centres unmarked) [compound 284, 2-(4-chloro-phenoxy)-N-[4-(dimethylamino-phenyl-methyl)-cyclohexyl]-acetamide] | 72 | 63 | 
26 | Cc1ccc(C2(O)CCC(C(c3ccc(Cl)cc3)N(C)C)CC2)cc1 (centres unmarked) [compound 165, 4-[(4-chloro-phenyl)-dimethylamino-methyl]-1-p-tolyl-cyclohexanol] |  |  | inhibition at 1 µM [1]: 52%
27 | CCC(C(=O)NC1CCC(C(c2cccc(F)c2)N(C)C)CC1)c1ccccc1 (centres unmarked) [compound 273, N-{4-[dimethylamino-(3-fluoro-phenyl)-methyl]-cyclohexyl}-2-phenyl-butyramide] | 75 | 81 | 
28 | CCn1nc(C)c(Br)c1C(=O)NCC1CCC(C(c2cccs2)N(C)C)CC1 (centres unmarked) [compound 375, 4-bromo-2-ethyl-5-methyl-2H-pyrazole-3-carboxylic acid [4-(dimethylamino-thiophen-2-yl-methyl)-cyclohexylmethyl]-amide] | 84 |  | 
29 | CCn1nc(C)c(Br)c1C(=O)NCC1CCC(C(c2ccccc2)N(C)C)CC1 (centres unmarked) [compound 390, 4-bromo-2-ethyl-5-methyl-2H-pyrazole-3-carboxylic acid [4-(dimethylamino-phenyl-methyl)-cyclohexylmethyl]-amide] | 81 |  | 
30 | CN(C)C(c1cccs1)C1CCC(CCNC(=O)c2cc(F)c(Cl)cc2Cl)CC1 (centres unmarked) [compound 440, 2,4-dichloro-N-{2-[4-(dimethylamino-thiophen-2-yl-methyl)-cyclohexyl]-ethyl}-5-fluoro-benzamide] | 95 | 15 | 
31 | CN(C)C(c1cccc(F)c1)C1CCC(O)(c2cc(Cl)cc(Cl)c2)CC1 (centres unmarked) [compound 155, 1-(3,5-dichloro-phenyl)-4-[dimethylamino-(3-fluoro-phenyl)-methyl]-cyclohexanol] |  |  | inhibition at 1 µM [1]: 77%
32 | CN(C)C(c1ccccc1)C1CCC(CNC(=O)c2ccc(F)c(F)c2)CC1 (single isomer, unassigned) [compound 294, N-[4-(dimethylamino-phenyl-methyl)-cyclohexylmethyl]-3,4-difluoro-benzamide] | 101 | 8.3 | 
33 | CN(C)C(c1cccc(F)c1)C1CCC(CNC(=O)c2cccs2)CC1 (single isomer, unassigned) [compound 340, thiophene-2-carboxylic acid {4-[dimethylamino-(3-fluoro-phenyl)-methyl]-cyclohexylmethyl}-amide] |  | 55 | μ-Opioid receptor, % inhibition [1 μM] (1 µM): 91%
34 | CCSc1ncccc1C(=O)NCC1CCC(C(c2ccccc2)N(C)C)CC1 (centres unmarked) [compound 310, N-[4-(dimethylamino-phenyl-methyl)-cyclohexylmethyl]-2-ethylsulfanyl-nicotinamide] | 98 | 16 | 
35 | CN(C)C(c1ccc(F)cc1)C1CCC(CNC(=O)C2(c3ccc(Cl)cc3)CCCC2)CC1 (centres unmarked) [compound 370, 1-(4-chloro-phenyl)-cyclopentane-carboxylic acid {4-[dimethylamino-(4-fluoro-phenyl)-methyl]-cyclohexylmethyl}-amide] | 84 | 81 | 
